Data as given in US20250277272A1, “CANCER TREATMENTS AND METHODS OF SELECTING SAME” (The General Hospital Corporation, priority 2016, published 2025).

Columns and labels:
[1] = test system: A375 cells; assay: MTS cell viability assay, A375 cells with STAG2 knockdown; assay type: cell-based; conditions: A375 cells expressing STAG2-specific shRNA vs scrambled control shRNA; 3 d
Procedure: FIGS. 2A-2H. […] FIG. 2A, Viability of A375 cells expressing cither a scrambled control shRNA or a STAG2-specific shRNA (shSTAG2 #23), after treatment with varying concentrations of dabrafenib (Dab) for 3 d. Experiment was performed three times. Data are mean±s.e.m. shSTAG2 #23 sequence: […] TTTG; SEQ ID NO. […] 2) FIG. 2B, Representative Western blot analysis of A375 cells that were treated with dabrafenib for 2 hr. Experiment was performed three times. […] Experiment was performed three times. FIG. 2D, Representative Western blot analysis of SKMEL30 cells that were treated with vemurafenib for 2 hr. […] Experiment was performed 3 times. Data are mean±s.e.m. […] Experiment was performed three times. […] Experiment was performed three times. […] Experiment was performed three times.
Experiment was performed 3 times. Data are mean±s.e.m. […] Experiment was performed three times. […] Experiment was performed three times. […] Experiment was performed 3 times. Data are mean±s.e.m. […] Experiment was performed three times. […] Experiment was performed three times. […] Experiment was performed 3 times. […] Experiment was performed 3 times. Data are mean±s.e.m. […] Experiment was performed 3 times.

[2] = test system: ERK phosphorylation; assay: Western blot of p-ERK in A375 cells with STAG2 and/or STAG3 knockdown; assay type: cell-based; conditions: 2 hr treatment
Procedure: (§1) FIGS. 2A-2H. Knock-down of STAG2 or STAG3 decreases BRAFi sensitivity in BRAF-mutant melanoma cells. FIG. 2A, Viability of A375 cells expressing cither a scrambled control shRNA or a STAG2-specific shRNA (shSTAG2 #23), after treatment with varying concentrations of dabrafenib (Dab) for 3 d. Experiment was performed three times. Data are mean±s.e.m. shSTAG2 #23 sequence: […] TTTG; SEQ ID NO. 1) scramble control shRNA sequence: ([…]: SEQ ID NO. 2) FIG. 2B, Representative Western blot analysis of A375 cells that were treated with dabrafenib for 2 hr. Experiment was performed three times. FIG. 2C, Viability of SKMEL28 cells expressing an inducible STAG2-specific shRNA (shStag2 #60; […]: SEQ ID NO. 3) and cultured in the presence (+Dox) or absence (−Dox) of doxycycline after treatment with varying concentrations of vemurafenib (VEM) for 3 d. Experiment was performed three times. FIG. 2D, Representative Western blot analysis of SKMEL30 cells that were treated with vemurafenib for 2 hr. FIG. 2E, Viability of A375 cells expressing either a scrambled control shRNA or a STAG3-specific shRNA (shSTAG3 #96), after treatment with varying concentrations of dabrafenib for 3 days. Experiment was performed 3 times. Data are mean±s.e.m. […]

[3] = test system: SKMEL28, A375 and M14 cells; assay: Sensitivity of cells with inducible STAG2 shRNA to BRAFi (viability, Western blot); assay type: cell-based; conditions: inducible expression of an independent shRNA targeting STAG2
Procedure: as §1

[4] = test system: BRAF-mutant melanoma cells; assay: BRAFi sensitivity after STAG3 knockdown (cell viability and ERK inhibition); assay type: cell-based; conditions: knockdown of STAG3
[5] = test system: WM902BR cells; assay: MTS assay with the ERK inhibitor, WM902 (Stag2 WT) and WM902BR (Stag2 mutant); assay type: cell-based; conditions: 3 days, two independent experiments
Procedure: Both WM902 (Stag2 WT) and WM902BR (Stag2 mutant) were treated with various concentrations of ERK inhibitor SCH772984 for 3 days, before MTS assays were performed. Data were from two independent experiments: Experiment A (FIG. 11A) and Experiment B (FIG. 11B).
(§2) Cell culture: All melanoma cell lines used in this study contain BRAF^Val600Glu mutations, except as otherwise indicated. A375 and SKMEL28 cells were purchased from the American Type Culture Collection (ATCC). LOX-IVMI cells were obtained from the Division of Cancer Treatment and Diagnosis. National Cancer Institute. (NCI-DCTD) repository. WM902, WM902-BR, WM983, WM983-BR and MEL1617 cell lines were obtained from Dr. Meenhard Herlyn (Wistar Institute). Immortalized Braf-null mouse embryonic fibroblasts (MEFs) were a gift from Dr. Catrin Pritchard (University of Leicester)^38. 501MEL and SKMEL103 cells, harboring NRAS mutations, were gifts from Dr. Lynda Chin (MD Anderson Cancer Center) and Dr. Jonathon Zippin (Weill Cornell Medical College), respectively. These cell lines were not authenticated by the inventors. WM902, WM983, M14, MEL1617, SKMEL28, A375, LOX-IVMI, 501MEL and SKMEL103 cells were cultured in RPMI containing 10% FBS (FBS) and penicillin-streptomycin-glutamine (PSG). HEK293 and MEF cells were maintained in Dulbecco's modified Eagle's medium (DMEM) containing 10% FBS and PSG. […]

[6] = test system: M14 or SKMEL28 melanoma cells; assay: MTS assay with the ERK inhibitor, cells with inducible Stag2 knockdown; assay type: cell-based; conditions: doxycycline-induced shStag2 #60; 3 days
Procedure: M14 (FIG. 12A) or SKMEL28 (FIG. 12B) melanoma cells expressing pTRIPZ-shStag2 #60 were cultured in the presence or absence of doxycycline (Doxy) for 5 days to induce the expression of Stag2 shRNAs and treated with various concentrations of ERK inhibitor SCH772984 for 3 days, before MTS assays were performed.
as §2, with “(PSG).” for “(PSG). HEK293 and MEF cells were maintained in Dulbecco's modified Eagle's medium (DMEM) containing 10% FBS and PSG.”

[7] = test system: melanoma; assay: Melanoma patient treated with BRAFi, relapse; assay type: in vivo, human; conditions: one melanoma patient who relapsed
From the text: This mutation in STAG2 gene (c.577G>A, resulting in Asp193Asn) was subsequently confirmed by Sanger sequencing. Although the pretreatment sample contains trace amounts of the mutated allele, it is greatly enriched in the post-relapse sample (FIG. 1A). STAG2 (also known as SA2) encodes a core subunit in the cohesin complex that regulates cohesion and segregation of sister chromatids^11,12. […] Stag2 has two other paralogs in mammals, Stag1 and Stag3. […] Sanger sequencing was subsequently performed for all coding exons of STAG2 and STAG3 genes in these cell line pairs and identified a STAG2 nonsense mutation (c.3247A>T, resulting in a change of Lys1083 to a stop codon (Lys1083*)) in WM902BR cells, which was not present in the parental WM902 cells (FIG. 6A). No mutations in STAG3 were identified in this cell line panel. […] STAG3 mutations were detected in post-relapse, but not pre-treatment, samples from an additional six patients from this study (Table 2).
Patient samples and immunohistochemistry (IHC): Patients with metastatic melanoma containing BRAF^Val600 mutations (confirmed by genotyping) were enrolled in clinical trials testing treatment with a BRAF inhibitor alone or in combination with a MEK inhibitor. […] Formalin-fixed tissue was analyzed to confirm that viable tumor was present, using hematoxylin and eosin (H&E) staining. […]

`CC(C)(C)c1nc(-c2cccc(NS(=O)(=O)c3c(F)cccc3F)c2F)c(-c2ccnc(N)n2)s1` [dabrafenib] was tested, and the “sensitivity in cell viability assay (MTS)” value [1] was “lower sensitivity”, the “ability to inhibit ERK phosphorylation” value [2] was “reduction in the ability” and the “sensitivity of cells to BRAFi” value [3] was “decreased the sensitivity”. The “sensitivity with regard to cell viability and ERK inhibition” value [4] was “decreased sensitivity”.

With `O=C(Nc1ccc2[nH]nc(-c3ccncc3)c2c1)[C@@H]1CCN(CC(=O)N2CCN(c3ccc(-c4ncccn4)cc3)CC2)C1` [SCH772984] the “sensitivity of cells in MTS assay” value [5] was “sensitive to inhibition” and the “effect of Stag2 knockdown on sensitivities in MTS assay” value [6] was “does not affect their sensitivities”.

`CCCS(=O)(=O)Nc1ccc(F)c(C(=O)c2c[nH]c3ncc(-c4ccc(Cl)cc4)cc23)c1F` [vemurafenib] was tested, and the time-to-disease-progression [7] was 5 months.
